≈ marks a conversion by molar mass, not a printed value. Residues, ends and D or L forms follow the SMILES beside them.
How the values were obtained:
[1] = design: method as in earlier work; conditions: cited from earlier work
E. faecium ATCC 700221 = assay type: cell-based, Enterococcus faecium; conditions: ATCC 700221, 18 h
Outline: (§1)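 Lipopeptides, tested from 0.5 to 256 µg/mL, were incubated with bacteria (5 × 10^5 CFU/mL, MHB) for 18 h at 37 °C following CLSI guidance. Triplicate determinations gave the MIC as the lowest growth-inhibiting concentration.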

[2] = test system: K. pneumoniae ATCC 700603; assay type: cell-based, Klebsiella pneumoniae; conditions: ATCC 700603, 18 h
Outline: as §1

S. aureus ATCC 25923 = assay type: cell-based, Staphylococcus aureus; conditions: ATCC 25923, 18 h
Outline: as §1

[3] = test system: S. aureus ATCC 33591 (MRSA); assay type: cell-based, Staphylococcus aureus; conditions: ATCC 33591, 18 h
Outline: as §1

[4] = Determination of peptide hydrophobicity with RP-HPLC (adjusted retention time); assay type: physicochemical; conditions: Table 3; adjusted retention time as hydrophobicity; RP-HPLC C18, linear 10–55% acetonitrile over 60 min, 0.1% TFA, 25.0 °C, UV 214 nm, triplicate
Outline: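 Peptides at 1 g/L in water with 0.1% TFA run on a C18 column (3.0 × 100 mm, 5 µm). Elution with a linear 10–55% acetonitrile gradient over 60 min, 0.1% TFA in both eluents, 0.5 mL/min, 25.0 ± 0.1 °C. Detection at 214 nm, in triplicate.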

K. aerogenes ATCC 13048 = assay type: cell-based, Klebsiella aerogenes; conditions: ATCC 13048, 18 h
Outline: as §1

P. aeruginosa ATCC 9027 = assay type: cell-based, Pseudomonas aeruginosa; conditions: ATCC 9027, 18 h
Outline: as §1

[5] = test system: A. baumannii ATCC BAA-1605; assay type: cell-based, Acinetobacter baumannii; conditions: ATCC BAA-1605, 18 h
Outline: as §1

C. albicans ATCC 10231 = assay type: cell-based, Candida albicans; conditions: ATCC 10231, 24 h, pH 7
[6] = test system: human red blood cells (hRBCs); assay type: cell-based; conditions: red cells of human, 1 h
Outline: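 Fresh EDTA-anticoagulated human RBCs, PBS-washed, at 4% (v/v) final were exposed to lipopeptides at 0.5–256 µg/mL for 1 h at 37 °C. Released haemoglobin in supernatant read at 540 nm; PBS as 0% and 1% Triton X-100 as 100% haemolysis. Triplicates.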

Row | Structure (SMILES) | pKa of the side chain [1] | MIC E1 (E. faecium ATCC 700221) | MIC K [2] | MIC SA (S. aureus ATCC 25923) | MIC S [3] | tR’ [4] [min] | MIC E2 (K. aerogenes ATCC 13048) | MIC PA (P. aeruginosa ATCC 9027) [µg/mL] | MIC A [5] [µg/mL] | MIC CA (C. albicans ATCC 10231) [µg/mL] | HC50 [6]
1 | NCCCC[C@H](N)C(=O)O [Lys, lysine] | 10.67 |  |  |  |  |  |  |  |  |  | 
2 | CCCCCCCCCCCC(=O)N[C@@H](CCCNC(=N)N)C(=O)N[C@@H](CCCNC(=N)N)C(=O)N[C@@H](CCCNC(=N)N)C(N)=O [compound 81, C12-RRR-NH2] (HELM PEPTIDE1{[CCCCCCCCCCCC(=O)[*:2]].R.R.R.[am]}$$$$V2.0) |  | 16 (>16) µg/mL | >256 (-) µg/mL | 16 (>16) µg/mL | 32 µg/mL (≈ 47.9 µM) | 30.00 | >256 (-) µg/mL | 128 (≈ 192 µM) | 256 (≈ 383 µM) | 128 (≈ 192 µM) | >256 µg/mL
3 | CCCCCCCCCCCCCC(=O)N[C@@H](CCCNC(=N)N)C(=O)N[C@@H](CCCNC(=N)N)C(=O)N[C@@H](CCCNC(=N)N)C(N)=O [compound 82, C14-RRR-NH2] (HELM PEPTIDE1{[CCCCCCCCCCCCCC(=O)[*:2]].R.R.R.[am]}$$$$V2.0) |  | 8 µg/mL (≈ 11.5 µM) | 128 µg/mL (≈ 184 µM) | 4 µg/mL (≈ 5.75 µM) | 8 µg/mL (≈ 11.5 µM) | 36.76 | 128 µg/mL (≈ 184 µM) | 32 (≈ 46 µM) | 128 (≈ 184 µM) | 16 (≈ 23 µM) | 211.32 (±9.57) µg/mL
4 | CCCCCCCCCCCCCC(=O)N[C@@H](CO)C(=O)N[C@@H](CCCNC(=N)N)C(=O)N[C@@H](CCCNC(=N)N)C(N)=O [compound 86, C14-SRR-NH2] (HELM PEPTIDE1{[CCCCCCCCCCCCCC(=O)[*:2]].S.R.R.[am]}$$$$V2.0) |  | 16 µg/mL (≈ 25.5 µM) | 128 µg/mL (≈ 204 µM) | 16 µg/mL (≈ 25.5 µM) | 16 µg/mL (≈ 25.5 µM) | 39.72 | 128 µg/mL (≈ 204 µM) | 32 (≈ 51 µM) | 32 (≈ 51 µM) | 32 (≈ 51 µM) | 41.54 (±1.29) µg/mL
5 | CCCCCCCCCCCCCC(=O)N[C@H](C(=O)N[C@@H](CCCNC(=N)N)C(=O)N[C@@H](CCCNC(=N)N)C(N)=O)[C@@H](C)O [compound 90, C14-TRR-NH2] (HELM PEPTIDE1{[CCCCCCCCCCCCCC(=O)[*:2]].T.R.R.[am]}$$$$V2.0) |  | 8 µg/mL (≈ 12.5 µM) | 128 µg/mL (≈ 200 µM) | 8 µg/mL (≈ 12.5 µM) | 8 µg/mL (≈ 12.5 µM) | 40.80 | 128 µg/mL (≈ 200 µM) | 32 (≈ 49.9 µM) | 64 (≈ 99.9 µM) | 8 (≈ 12.5 µM) | 43.43 (±0.90) µg/mL
6 | CCCCCCCCCCCC(=O)N[C@H](C(=O)N[C@@H](CCCNC(=N)N)C(=O)N[C@@H](CCCNC(=N)N)C(N)=O)C(C)C [compound 93, C12-VRR-NH2] (HELM PEPTIDE1{[CCCCCCCCCCCC(=O)[*:2]].V.R.R.[am]}$$$$V2.0) |  | 16 µg/mL (≈ 26.2 µM) | >256 (-) µg/mL | 16 µg/mL (≈ 26.2 µM) | 16 µg/mL (≈ 26.2 µM) | 37.17 | 256 µg/mL (≈ 419 µM) | 32 (≈ 52.4 µM) | 128 (≈ 210 µM) | 32 (≈ 52.4 µM) | 246.30 (±14.12) µg/mL
7 | CCCCCCCCCCCCCC(=O)N[C@H](C(=O)N[C@@H](CCCNC(=N)N)C(=O)N[C@@H](CCCNC(=N)N)C(N)=O)C(C)C [compound 94, C14-VRR-NH2] (HELM PEPTIDE1{[CCCCCCCCCCCCCC(=O)[*:2]].V.R.R.[am]}$$$$V2.0) |  | 16 µg/mL (≈ 25 µM) | 128 µg/mL (≈ 200 µM) | 4 µg/mL (≈ 6.26 µM) | 4 µg/mL (≈ 6.26 µM) | 44.02 | 128 µg/mL (≈ 200 µM) | 8 (≈ 12.5 µM) | 32 (≈ 50.1 µM) | 8 (≈ 12.5 µM) | 30.73 (±0.41) µg/mL
8 | CCCCCCCCCC(=O)N[C@@H](Cc1c[nH]c2ccccc12)C(=O)N[C@@H](CCCNC(=N)N)C(=O)N[C@@H](CCCNC(=N)N)C(N)=O [compound 96, C10-WRR-NH2] (HELM PEPTIDE1{[CCCCCCCCCC(=O)[*:2]].W.R.R.[am]}$$$$V2.0) |  | 16 (>16) µg/mL | >256 (-) µg/mL | 16 (>16) µg/mL | 16 (>16) µg/mL | 34.31 | >256 (-) µg/mL | 32 (≈ 47.8 µM) | 64 (≈ 95.5 µM) | 32 (≈ 47.8 µM) | >256 µg/mL
9 | CCCCCCCCCCCC(=O)N[C@@H](Cc1c[nH]c2ccccc12)C(=O)N[C@@H](CCCNC(=N)N)C(=O)N[C@@H](CCCNC(=N)N)C(N)=O [compound 97, C12-WRR-NH2] (HELM PEPTIDE1{[CCCCCCCCCCCC(=O)[*:2]].W.R.R.[am]}$$$$V2.0) |  | 8 µg/mL (≈ 11.5 µM) | 256 µg/mL (≈ 367 µM) | 4 µg/mL (≈ 5.73 µM) | 2 µg/mL (≈ 2.87 µM) | 40.79 | 256 µg/mL (≈ 367 µM) | 8 (≈ 11.5 µM) | 32 (≈ 45.8 µM) | 8 (≈ 11.5 µM) | 42.42 (±0.57) µg/mL
10 | CCCCCCCCCCCCCC(=O)N[C@@H](Cc1c[nH]c2ccccc12)C(=O)N[C@@H](CCCNC(=N)N)C(=O)N[C@@H](CCCNC(=N)N)C(N)=O [compound 98, C14-WRR-NH2] (HELM PEPTIDE1{[CCCCCCCCCCCCCC(=O)[*:2]].W.R.R.[am]}$$$$V2.0) |  | 8 µg/mL (≈ 11 µM) | 64 µg/mL (≈ 88.2 µM) | 4 µg/mL (≈ 5.51 µM) | 2 µg/mL (≈ 2.75 µM) | 47.11 | 32 µg/mL (≈ 44.1 µM) | 8 (≈ 11 µM) | 128 (≈ 176 µM) | 4 (≈ 5.51 µM) | 36.91 (±0.89) µg/mL
11 | CCCCCCCCCCCC(=O)N[C@@H](Cc1ccc(O)cc1)C(=O)N[C@@H](CCCNC(=N)N)C(=O)N[C@@H](CCCNC(=N)N)C(N)=O [compound 101, C12-YRR-NH2] (HELM PEPTIDE1{[CCCCCCCCCCCC(=O)[*:2]].Y.R.R.[am]}$$$$V2.0) |  | 16 µg/mL (≈ 23.7 µM) | 128 µg/mL (≈ 190 µM) | 8 µg/mL (≈ 11.9 µM) | 8 µg/mL (≈ 11.9 µM) | 36.17 | 128 µg/mL (≈ 190 µM) | 16 (≈ 23.7 µM) | 32 (≈ 47.4 µM) | 32 (≈ 47.4 µM) | 123.08 (±1.12) µg/mL
12 | CCCCCCCCCCCCCC(=O)N[C@@H](Cc1ccc(O)cc1)C(=O)N[C@@H](CCCNC(=N)N)C(=O)N[C@@H](CCCNC(=N)N)C(N)=O [compound 102, C14-YRR-NH2] (HELM PEPTIDE1{[CCCCCCCCCCCCCC(=O)[*:2]].Y.R.R.[am]}$$$$V2.0) |  | 4 µg/mL (≈ 5.69 µM) | 32 µg/mL (≈ 45.5 µM) | 4 µg/mL (≈ 5.69 µM) | 4 µg/mL (≈ 5.69 µM) | 42.73 | 64 µg/mL (≈ 91 µM) | 8 (≈ 11.4 µM) | 32 (≈ 45.5 µM) | 4 (≈ 5.69 µM) | 46.52 (±5.24) µg/mL
